Source: ChEMBL document CHEMBL1201862, “PubChem BioAssay data set” (2004)
The source made the active and inactive calls.

Tests used:
[1] = target: Disintegrin and metalloproteinase domain-containing protein 17 (Homo sapiens, UniProt P78536); experiment: exosite inhibitors of ADAM17, dose response, biochemical (AID 743260)
[2] = inhibition of ADAM10 peptide cleavage – biochemical, FRET peptide substrate, recombinant human ADAM10, selectivity assay for ADAM17 exosite inhibitor project, dose response (AID 743259);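 note: ADAM10 enzyme cleaving a FRET peptide substrate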
[3] = target: Scavenger receptor class B member 1 (Mus musculus, UniProt Q61009); experiment: mouse SR-BI DiI-HDL uptake blockers – ldlA[mSR-BI] cells, fluorescence, cherry pick, dose response (AID 493194); format: functional, cell-based;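 note: cellular uptake of fluorescent DiI-labeled HDL measured as cell fluorescence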
Chain of Scavenger receptor class B member 1 (Q61009 whole entry): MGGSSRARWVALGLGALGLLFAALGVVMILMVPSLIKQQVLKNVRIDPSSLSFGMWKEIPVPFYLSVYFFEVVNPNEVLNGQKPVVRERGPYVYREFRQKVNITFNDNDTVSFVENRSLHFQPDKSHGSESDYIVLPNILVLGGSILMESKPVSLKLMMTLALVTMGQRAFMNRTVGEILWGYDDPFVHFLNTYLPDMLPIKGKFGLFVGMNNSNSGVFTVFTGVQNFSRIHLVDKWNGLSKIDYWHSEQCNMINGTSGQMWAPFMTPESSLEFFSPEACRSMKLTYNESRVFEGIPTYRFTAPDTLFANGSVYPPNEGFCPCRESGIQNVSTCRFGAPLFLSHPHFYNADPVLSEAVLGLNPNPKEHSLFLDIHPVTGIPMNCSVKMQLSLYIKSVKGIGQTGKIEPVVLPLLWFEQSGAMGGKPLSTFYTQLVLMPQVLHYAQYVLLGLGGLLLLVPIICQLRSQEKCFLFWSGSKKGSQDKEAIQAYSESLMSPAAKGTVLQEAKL

Beta-galactosidase = Beta-galactosidase (Escherichia coli, UniProt Q8VNN2); format: functional
Estrogen receptor = Estrogen receptor (Homo sapiens, UniProt P03372);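 note: potency for inhibiting coactivator peptide recruitment to the receptor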
Chain of Estrogen receptor (P03372 whole entry): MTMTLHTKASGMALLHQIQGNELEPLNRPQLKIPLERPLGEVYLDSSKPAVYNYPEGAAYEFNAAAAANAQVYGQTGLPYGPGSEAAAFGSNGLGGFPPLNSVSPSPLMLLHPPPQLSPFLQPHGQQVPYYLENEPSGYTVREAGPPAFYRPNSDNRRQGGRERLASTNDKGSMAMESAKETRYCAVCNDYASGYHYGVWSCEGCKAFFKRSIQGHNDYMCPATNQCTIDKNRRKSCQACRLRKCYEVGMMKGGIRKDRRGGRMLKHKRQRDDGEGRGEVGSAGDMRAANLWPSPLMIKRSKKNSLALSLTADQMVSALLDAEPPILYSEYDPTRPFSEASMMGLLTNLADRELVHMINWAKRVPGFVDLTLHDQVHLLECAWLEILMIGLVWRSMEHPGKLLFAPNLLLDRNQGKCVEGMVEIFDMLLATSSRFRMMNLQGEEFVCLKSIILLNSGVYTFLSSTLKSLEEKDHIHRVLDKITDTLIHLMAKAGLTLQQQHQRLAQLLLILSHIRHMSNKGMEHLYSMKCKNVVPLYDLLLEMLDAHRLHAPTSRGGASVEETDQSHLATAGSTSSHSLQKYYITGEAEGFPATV

[4] = target: T1, Microphthalmia-associated transcription factor (Homo sapiens, UniProt O75030); experiment: reducers of TRPM1 reporter luminescence, concentration series – cell-based, SK-MEL-5, cherry-picked, set 3, MITF inhibitor project, dose response (AID 493073); format: functional;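 note: SK-MEL-5 melanoma cells with luciferase driven by the MITF target TRPM1 promoter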
T1 sequence (O75030 whole entry): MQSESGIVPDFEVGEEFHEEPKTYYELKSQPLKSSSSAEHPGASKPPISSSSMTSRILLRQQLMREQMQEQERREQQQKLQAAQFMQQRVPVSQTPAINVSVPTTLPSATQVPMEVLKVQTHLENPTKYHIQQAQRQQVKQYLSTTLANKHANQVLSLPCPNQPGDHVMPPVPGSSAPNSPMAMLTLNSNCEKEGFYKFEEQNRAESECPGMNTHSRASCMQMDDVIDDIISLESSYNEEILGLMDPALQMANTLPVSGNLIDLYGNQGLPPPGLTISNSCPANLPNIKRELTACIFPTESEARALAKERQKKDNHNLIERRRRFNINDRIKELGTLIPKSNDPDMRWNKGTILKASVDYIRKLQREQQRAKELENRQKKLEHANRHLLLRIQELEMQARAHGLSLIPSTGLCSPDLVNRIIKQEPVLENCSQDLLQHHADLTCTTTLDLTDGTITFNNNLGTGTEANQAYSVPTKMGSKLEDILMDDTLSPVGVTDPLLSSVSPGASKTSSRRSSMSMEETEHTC

[5] = target: Eukaryotic translation initiation factor 4H (Homo sapiens, UniProt Q15056); experiment: eIF4H binding inhibition – biochemical, uHTS, fluorescence polarization, translation initiation inhibitor project, primary screen (AID 2012)
[6] = target: Polyadenylate-binding protein 1 (Homo sapiens, UniProt P11940); experiment: blockers of PABP interaction with poly(A) – biochemical, fluorescence polarization, […] (AID 2014)
Chain of Polyadenylate-binding protein 1 (P11940 whole entry): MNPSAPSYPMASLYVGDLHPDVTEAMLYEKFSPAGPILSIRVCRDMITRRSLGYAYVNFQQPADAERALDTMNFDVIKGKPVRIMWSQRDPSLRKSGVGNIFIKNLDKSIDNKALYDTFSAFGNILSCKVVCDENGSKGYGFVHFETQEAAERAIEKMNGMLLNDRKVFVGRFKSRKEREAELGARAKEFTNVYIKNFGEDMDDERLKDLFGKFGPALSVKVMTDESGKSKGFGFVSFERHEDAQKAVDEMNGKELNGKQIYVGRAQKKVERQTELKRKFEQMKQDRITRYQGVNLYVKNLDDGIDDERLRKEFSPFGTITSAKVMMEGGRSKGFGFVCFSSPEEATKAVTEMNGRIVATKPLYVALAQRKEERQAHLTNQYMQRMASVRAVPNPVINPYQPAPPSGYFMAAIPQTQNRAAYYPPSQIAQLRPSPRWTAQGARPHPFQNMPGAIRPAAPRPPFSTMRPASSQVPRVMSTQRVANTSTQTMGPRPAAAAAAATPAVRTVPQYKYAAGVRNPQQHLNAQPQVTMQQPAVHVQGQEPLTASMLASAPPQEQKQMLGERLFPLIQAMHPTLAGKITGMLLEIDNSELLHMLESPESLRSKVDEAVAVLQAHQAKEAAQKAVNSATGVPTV

Bcl-2-like protein 10 = target: T2, Bcl-2-like protein 10 (Homo sapiens, UniProt Q9HD36); experiment: Concentration-response of Bcl-B inhibitors by biochemical FP with TR3 (AID 1243); format: functional
T2 sequence (Q9HD36 whole entry): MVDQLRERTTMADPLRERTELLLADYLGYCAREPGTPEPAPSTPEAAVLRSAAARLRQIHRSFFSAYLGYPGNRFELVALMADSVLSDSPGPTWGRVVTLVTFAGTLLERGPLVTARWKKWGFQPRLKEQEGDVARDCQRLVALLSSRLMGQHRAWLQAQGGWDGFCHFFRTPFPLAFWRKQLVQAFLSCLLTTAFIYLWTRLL

[7] = Luminescence-based counterscreen assay for KLF5 inhibitors: dose response cell-based high throughput screening assay to identify cytotoxic compounds using the IEC-6 intestinal epithelial cell line. [Related pubchem assays: 1700 (Primary screen.), 1834 (Confirmation screen.), 1858 (Summary AID.), 1905 (Counterscreen.)]; format: functional
HEK293 = experiment: cells; conditions: Homo sapiens;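 note: cells exposed to compound for 14 hours overnight before viability readout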
[8] = ADP-Glo luciferase signal interference – biochemical, luminescence, cherry-picked samples, set 2, artefact control for CDK5 inhibitor project, dose response (AID 504546); format: functional, cell-based
[9] = HEK-293T viability loss after treatment – luminescence, T-cell screen hits, cytotoxicity control for TCR NF-kB inhibitor project, dose response (AID 489026); format: functional, cell-based;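 note: cells exposed to compound about 14 hours before the viability readout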
Vero = experiment: cells; format: functional; conditions: Chlorocebus sabaeus
Aspartyl aminopeptidase = Aspartyl aminopeptidase (Plasmodium falciparum 3D7, UniProt Q8I2J3)
Chain of Aspartyl aminopeptidase (Q8I2J3 whole entry): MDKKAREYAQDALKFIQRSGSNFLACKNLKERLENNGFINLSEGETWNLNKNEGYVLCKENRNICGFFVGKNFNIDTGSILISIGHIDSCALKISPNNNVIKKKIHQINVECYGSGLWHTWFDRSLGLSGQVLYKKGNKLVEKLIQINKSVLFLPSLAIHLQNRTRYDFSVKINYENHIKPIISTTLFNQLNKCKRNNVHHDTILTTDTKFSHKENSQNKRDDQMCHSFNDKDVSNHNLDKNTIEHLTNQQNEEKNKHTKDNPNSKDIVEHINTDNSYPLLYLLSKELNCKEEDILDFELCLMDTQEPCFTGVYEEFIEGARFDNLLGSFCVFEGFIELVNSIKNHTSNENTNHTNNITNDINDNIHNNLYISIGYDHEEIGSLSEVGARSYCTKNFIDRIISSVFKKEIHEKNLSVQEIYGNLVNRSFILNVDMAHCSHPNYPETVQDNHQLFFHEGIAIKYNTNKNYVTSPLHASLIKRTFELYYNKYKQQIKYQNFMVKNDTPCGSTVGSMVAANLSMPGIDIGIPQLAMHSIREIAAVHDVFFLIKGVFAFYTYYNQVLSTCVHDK

Procathepsin L = Procathepsin L (Homo sapiens, UniProt P07711)
Chain of Procathepsin L (P07711 whole entry): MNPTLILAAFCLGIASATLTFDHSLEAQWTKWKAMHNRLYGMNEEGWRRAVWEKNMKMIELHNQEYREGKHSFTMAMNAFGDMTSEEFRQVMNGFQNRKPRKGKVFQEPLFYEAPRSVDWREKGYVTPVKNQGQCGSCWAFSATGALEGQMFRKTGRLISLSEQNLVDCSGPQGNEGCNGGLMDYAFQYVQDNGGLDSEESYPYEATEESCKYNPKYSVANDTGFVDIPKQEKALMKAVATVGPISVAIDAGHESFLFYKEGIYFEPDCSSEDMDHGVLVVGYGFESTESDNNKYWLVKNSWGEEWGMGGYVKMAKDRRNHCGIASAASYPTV

NS3 = NS3 (Hepatitis C virus, UniProt A3EZJ3); experiment: PubChem AID 2173; set-up: species or system Hepacivirus hominis
Chain of NS3 (A3EZJ3 whole entry): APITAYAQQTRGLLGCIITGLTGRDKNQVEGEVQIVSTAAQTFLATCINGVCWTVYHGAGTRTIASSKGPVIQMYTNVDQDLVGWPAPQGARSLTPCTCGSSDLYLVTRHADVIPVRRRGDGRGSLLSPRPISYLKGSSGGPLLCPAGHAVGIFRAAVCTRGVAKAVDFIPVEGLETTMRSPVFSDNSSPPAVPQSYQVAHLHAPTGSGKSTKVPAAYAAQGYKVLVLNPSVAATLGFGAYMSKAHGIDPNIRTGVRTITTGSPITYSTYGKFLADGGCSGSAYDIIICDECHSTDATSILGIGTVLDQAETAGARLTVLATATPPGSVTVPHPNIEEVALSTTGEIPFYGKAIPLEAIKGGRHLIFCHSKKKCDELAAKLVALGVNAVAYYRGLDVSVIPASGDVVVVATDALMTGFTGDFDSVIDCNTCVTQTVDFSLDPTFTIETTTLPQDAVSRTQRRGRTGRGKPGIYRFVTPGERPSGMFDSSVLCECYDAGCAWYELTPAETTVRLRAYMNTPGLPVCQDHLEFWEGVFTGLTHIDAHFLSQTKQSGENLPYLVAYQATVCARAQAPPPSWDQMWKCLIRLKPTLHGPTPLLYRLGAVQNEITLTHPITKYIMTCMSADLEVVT

[10] = target: T3, Alkaline phosphatase, tissue-nonspecific isozyme (Homo sapiens, UniProt P05186)
T3 sequence (P05186 whole entry): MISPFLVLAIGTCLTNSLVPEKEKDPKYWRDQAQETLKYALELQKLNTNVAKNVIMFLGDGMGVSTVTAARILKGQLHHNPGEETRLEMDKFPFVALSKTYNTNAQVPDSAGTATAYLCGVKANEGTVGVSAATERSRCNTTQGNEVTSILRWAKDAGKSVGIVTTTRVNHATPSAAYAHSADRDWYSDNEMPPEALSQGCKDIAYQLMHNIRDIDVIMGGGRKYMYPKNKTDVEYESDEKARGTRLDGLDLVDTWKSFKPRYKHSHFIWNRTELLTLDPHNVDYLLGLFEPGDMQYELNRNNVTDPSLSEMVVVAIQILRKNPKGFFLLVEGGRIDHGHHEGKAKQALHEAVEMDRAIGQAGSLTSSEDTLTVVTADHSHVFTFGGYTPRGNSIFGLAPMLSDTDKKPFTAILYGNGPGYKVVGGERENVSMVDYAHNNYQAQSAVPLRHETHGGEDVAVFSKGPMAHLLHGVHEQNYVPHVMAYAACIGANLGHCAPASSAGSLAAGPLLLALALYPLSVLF

Leucine aminopeptidase = target: T4, Leucine aminopeptidase (Plasmodium falciparum 3D7, UniProt Q8IL11); experiment: P. falciparum M17LAP inhibitors, primary screen, biochemical, fluorogenic H-Leu-NHMec substrate, 1536-well (AID 1619); format: functional
T4 sequence (Q8IL11 whole entry): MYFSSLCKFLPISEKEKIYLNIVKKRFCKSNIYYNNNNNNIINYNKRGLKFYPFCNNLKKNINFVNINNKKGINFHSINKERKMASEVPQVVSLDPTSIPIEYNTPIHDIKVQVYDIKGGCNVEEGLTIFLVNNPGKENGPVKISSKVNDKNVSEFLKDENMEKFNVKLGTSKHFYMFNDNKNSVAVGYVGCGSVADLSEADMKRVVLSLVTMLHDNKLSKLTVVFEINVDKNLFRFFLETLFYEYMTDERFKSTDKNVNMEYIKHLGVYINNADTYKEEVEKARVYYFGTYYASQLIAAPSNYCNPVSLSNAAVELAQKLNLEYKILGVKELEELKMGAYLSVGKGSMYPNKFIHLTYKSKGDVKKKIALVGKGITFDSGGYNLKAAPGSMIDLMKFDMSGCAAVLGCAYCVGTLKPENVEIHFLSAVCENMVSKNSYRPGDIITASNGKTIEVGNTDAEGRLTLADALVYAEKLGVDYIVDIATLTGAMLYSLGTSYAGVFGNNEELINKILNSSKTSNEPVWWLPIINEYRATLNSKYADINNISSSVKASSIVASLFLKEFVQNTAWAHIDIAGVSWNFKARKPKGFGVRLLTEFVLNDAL

HeLa = experiment: Cytotoxicity counterscreen assay for transcriptional activators of heat shock protein 70 (Hsp70). [Related pubchem assays: 1203, 1252 ]; format: functional; conditions: Homo sapiens;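 note: cells exposed to compound for 16 hours before readout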
[11] = mitochondrial function rescue without frataxin homolog – Friedreich's ataxia, plus single-dose screen, dose response (AID 1465); format: functional;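 note: yeast depleted of Yfh1p frataxin homolog grown on glycerol needing respiration; WST-1 tetrazolium dye reduction as measure of cellular dehydrogenase metabolic activity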
[12] = Counterscreen for IDE inhibitors: Luminescence-based cell-based high throughput dose response assay to identify compounds that are cytotoxic to HEK cells. [Related pubchem assays: 434962 (Primary screen (IDE inhibitors in singlicate)), 449730 (Counterscreen (Cytotoxicity in triplicate)), 435028 (Confirmation (IDE inhibitors in triplicate)) …; format: functional; conditions: HEK293
Insulin-degrading enzyme = target: T5, Insulin-degrading enzyme (Homo sapiens, UniProt P14735); experiment: Dose Response: Fluorescence polarization-based cell-based high throughput dose response assay for inhibitors of insulin-degrading enzyme (IDE). [Related pubchem assays: 434962 (Primary screen (IDE inhibitors in singlicate)), 449730 (Counterscreen (Cytotoxicity in triplicate)), 435028 (Confirmation (IDE inhibitors in triplicate)), 434984 (Summary …; format: functional
T5 sequence (P14735 whole entry): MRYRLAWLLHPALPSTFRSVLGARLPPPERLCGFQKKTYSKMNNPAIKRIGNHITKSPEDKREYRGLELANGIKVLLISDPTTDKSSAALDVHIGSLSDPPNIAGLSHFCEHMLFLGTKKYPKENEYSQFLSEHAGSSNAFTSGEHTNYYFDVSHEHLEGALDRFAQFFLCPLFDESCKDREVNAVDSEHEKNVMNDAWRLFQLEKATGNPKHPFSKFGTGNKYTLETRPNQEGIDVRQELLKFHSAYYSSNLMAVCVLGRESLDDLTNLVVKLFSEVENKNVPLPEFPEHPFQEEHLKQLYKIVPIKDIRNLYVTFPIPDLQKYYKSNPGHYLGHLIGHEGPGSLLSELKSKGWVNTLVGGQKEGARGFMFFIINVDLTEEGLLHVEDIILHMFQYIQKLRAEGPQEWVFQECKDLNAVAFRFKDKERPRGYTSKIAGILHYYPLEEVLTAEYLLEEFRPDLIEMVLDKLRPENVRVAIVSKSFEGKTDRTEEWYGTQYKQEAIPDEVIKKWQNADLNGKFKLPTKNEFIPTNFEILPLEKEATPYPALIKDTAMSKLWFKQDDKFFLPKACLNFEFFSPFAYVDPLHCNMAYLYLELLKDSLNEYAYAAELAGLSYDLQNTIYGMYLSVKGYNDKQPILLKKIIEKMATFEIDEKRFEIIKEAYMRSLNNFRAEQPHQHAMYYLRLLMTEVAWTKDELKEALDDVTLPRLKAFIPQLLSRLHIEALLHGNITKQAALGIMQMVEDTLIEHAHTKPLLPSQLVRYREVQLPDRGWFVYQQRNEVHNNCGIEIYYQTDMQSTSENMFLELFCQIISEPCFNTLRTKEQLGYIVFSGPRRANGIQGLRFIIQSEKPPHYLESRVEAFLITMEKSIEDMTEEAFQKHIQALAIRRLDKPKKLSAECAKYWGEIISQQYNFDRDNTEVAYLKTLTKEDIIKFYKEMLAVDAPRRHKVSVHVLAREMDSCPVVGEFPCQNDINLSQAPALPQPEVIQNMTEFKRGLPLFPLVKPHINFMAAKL

[13] = target: T6, Heat shock 70 kDa protein 1A (Homo sapiens, UniProt P0DMV8); experiment: small-molecule inhibition of Hsp70 – biochemical, TR-FRET (AID 786)
T6 sequence (P0DMV8 whole entry): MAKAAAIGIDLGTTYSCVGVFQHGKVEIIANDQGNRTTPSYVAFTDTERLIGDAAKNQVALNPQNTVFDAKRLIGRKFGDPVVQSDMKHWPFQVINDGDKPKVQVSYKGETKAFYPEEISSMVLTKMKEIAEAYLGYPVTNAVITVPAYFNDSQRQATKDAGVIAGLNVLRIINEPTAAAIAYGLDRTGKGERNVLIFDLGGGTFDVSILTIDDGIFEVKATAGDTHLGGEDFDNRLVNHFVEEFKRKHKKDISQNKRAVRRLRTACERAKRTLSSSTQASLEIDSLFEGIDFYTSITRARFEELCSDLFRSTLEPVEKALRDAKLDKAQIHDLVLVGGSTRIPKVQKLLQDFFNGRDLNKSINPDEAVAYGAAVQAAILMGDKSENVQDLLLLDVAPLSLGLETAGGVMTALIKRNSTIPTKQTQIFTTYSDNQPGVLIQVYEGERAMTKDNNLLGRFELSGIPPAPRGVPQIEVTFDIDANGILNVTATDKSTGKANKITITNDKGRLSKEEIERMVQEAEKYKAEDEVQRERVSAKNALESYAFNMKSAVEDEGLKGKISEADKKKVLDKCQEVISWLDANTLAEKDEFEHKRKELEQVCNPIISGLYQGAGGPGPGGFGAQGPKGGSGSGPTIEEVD

[14] = target: T6, Heat shock 70 kDa protein 1A; experiment: small molecules displacing fluorescent ligand from Hsp70 – biochemical, fluorescence polarization, primary screen (AID 583)

Chain of Disintegrin and metalloproteinase domain-containing protein 17 (P78536 whole entry, the tested form may be a part): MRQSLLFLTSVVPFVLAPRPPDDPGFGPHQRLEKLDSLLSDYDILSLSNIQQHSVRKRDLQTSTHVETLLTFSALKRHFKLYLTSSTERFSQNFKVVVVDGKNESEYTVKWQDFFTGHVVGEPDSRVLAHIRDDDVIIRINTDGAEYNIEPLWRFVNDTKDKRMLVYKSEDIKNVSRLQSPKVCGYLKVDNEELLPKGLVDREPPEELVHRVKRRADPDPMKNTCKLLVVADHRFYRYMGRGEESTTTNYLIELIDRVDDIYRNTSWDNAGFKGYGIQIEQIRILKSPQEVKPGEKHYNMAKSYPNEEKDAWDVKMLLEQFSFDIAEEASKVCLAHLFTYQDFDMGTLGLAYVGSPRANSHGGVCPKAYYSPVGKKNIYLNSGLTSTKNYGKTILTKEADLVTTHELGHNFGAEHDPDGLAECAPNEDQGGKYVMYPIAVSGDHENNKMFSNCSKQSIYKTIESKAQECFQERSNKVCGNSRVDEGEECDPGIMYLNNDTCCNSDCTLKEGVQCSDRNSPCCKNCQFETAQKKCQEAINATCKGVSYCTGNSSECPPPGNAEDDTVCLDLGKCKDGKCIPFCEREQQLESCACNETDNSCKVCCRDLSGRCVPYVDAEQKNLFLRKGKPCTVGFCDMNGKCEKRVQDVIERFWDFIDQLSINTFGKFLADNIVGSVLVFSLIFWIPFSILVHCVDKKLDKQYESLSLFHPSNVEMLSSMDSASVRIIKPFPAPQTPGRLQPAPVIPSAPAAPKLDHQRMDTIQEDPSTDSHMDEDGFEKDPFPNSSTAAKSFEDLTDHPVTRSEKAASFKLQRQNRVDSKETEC

Question: What does the source list for `N=C1/C(=C/c2cccn2CCOc2ccccc2)C(=O)N=C2SC=C(c3ccccc3)N12`?
Answer: IC50 [1]: > 69.5 µM (inactive); IC50 [2]: > 69.5 µM (inactive); AC50 [3]: 16.9 µM (active)

Question: With `C=CCN1CC[C@]23c4c5ccc(O)c4OC2C(=O)CC[C@@]3(O)C1C5` (stereo not given in full) as the compound, how does the EC50 (Beta-galactosidase) read?
Answer: > 31.5 µM (inactive)

Question: What does the source list for `O=C(N/N=C/c1cccc(Oc2ccc([N+](=O)[O-])cc2[N+](=O)[O-])c1)c1cncc(Br)c1`?
Answer: IC50 (Estrogen receptor): 27.9 µM (active); AC50 [4]: 243 µM (active)

Question: With `Cc1ccc(NC(=O)COC(=O)/C=C/c2ccco2)cc1S(=O)(=O)N(C)C` as the compound, how does the IC50 [5] read?
Answer: 21.9 µM (active)

Question: And the IC50 [6]?
Answer: 90.5 µM (active)

Question: Which EC50 (Bcl-2-like protein 10) does the source give for `Cc1cc(I)c2c(c1)C1C=CCC1C(C(=O)O)N2` (stereo not given) here?
Answer: 20.7 µM (active)

Question: Which IC50 [7] does the source give for `Cc1ccc(C(=O)O/N=C(\N)c2ccccn2)c(C)c1` here?
Answer: 13.1 µM (not active)

Question: What about the IC50 (HEK293) of the same compound?
Answer: > 20 µM (inactive)

Question: And the AC50 [8]?
Answer: 17.7 µM (active)

Question: What about the IC50 [9] of the same compound?
Answer: > 80 µM (inactive)

Question: What about the CC50 (Vero) of the same compound?
Answer: 22.5 µM (active)

Question: Which IC50 (Aspartyl aminopeptidase) does the source give for `O=C(Nc1cc(N2CCOCC2)ncn1)NC1(C(F)(F)F)Oc2ccccc2O1` here?
Answer: 2.7 µM (active)

Question: What about the IC50 (Procathepsin L) of the same compound?
Answer: > 59.6 µM (not active)

Question: Which IC50 (NS3) does the source give for `Nc1c(C(=O)Nc2ccccc2F)sc2nc(-c3ccco3)ccc12` here?
Answer: > 36.3 µM (not active)

Question: What does the source list for `O=C1/C(=C/c2cccs2)NC(=S)N1C1CC1`?
Answer: EC50 [10]: > 100 µM (not active); IC50 (Leucine aminopeptidase): 6.44 µM (active)

Question: With `CCOC(=O)C1(C/C(C)=N/NC(N)=O)CC(C)OC1=O` (stereo not given) as the compound, how does the CC50 (HeLa) read?
Answer: > 99 µM (not active)

Question: Which results are given for `Cc1ccccc1N1C(=O)NC(=O)/C(=C/c2ccc(N3CCOCC3)o2)C1=O`?
Answer: EC50 [11]: > 100 µM (active); IC50 [12]: > 55.6 µM (not active); IC50 (Insulin-degrading enzyme): 30.5 µM (not active)

Question: Which IC50 [13] does the source give for `CCOC(=O)C1CCN(C(=O)Cc2c(F)cccc2Cl)CC1` here?
Answer: > 100 µM (not active)

Question: And the IC50 [14]?
Answer: > 100 µM (not active)
